Laboratory results as given in patent publication US10081628B2, “Apoptosis-inducing agents for the treatment of cancer and immune and autoimmune diseases” (AbbVie Inc., priority 2013, dated 2018).
Read-outs that look alike come from different tables or passages of the source.

Legend:
[1] = system: RS4;11 cells; details: Blood, 2008, Vol. 111, 2300-2309; cited from earlier work
[2] = system: lymphocytes; assay: Lymphocyte reduction in C57BL/6 mice; assay type: in vivo; details: Mus musculus, ip
Summary of the method: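 C57Bl/6 mice dosed intraperitoneally at 30 mg/kg daily for four days. Blood cell counts by hematology analyzer 24 hours after first and last doses; exposure (AUC) from samples at 1, 6, 10 and 24 hours after last dose.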

[3] = system: RS4;11 cells; assay: RS4;11 cell viability assay (CellTiter Glo); assay type: cell-based; details: 10% human serum, 48 hours
Summary of the method: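 Cells seeded at 50,000 per well and exposed to compounds for 48 h at 37 C, 5% CO2 in the presence of 10% human serum. Viability read by CellTiter Glo; EC50 derived from percentage of viable cells versus untreated controls.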

[4] = target: GST-Bcl-2 (Homo sapiens, UniProt P10415); assay: TR-FRET Bcl-2 binding assay (F-Bak peptide probe); details: GST-Bcl-2 1 nM, F-Bak peptide probe 100 nM, Tb-anti-GST 1 nM; Wang's equation; '<' = below limit of detection
Sequence of GST-Bcl-2 (P10415 whole entry): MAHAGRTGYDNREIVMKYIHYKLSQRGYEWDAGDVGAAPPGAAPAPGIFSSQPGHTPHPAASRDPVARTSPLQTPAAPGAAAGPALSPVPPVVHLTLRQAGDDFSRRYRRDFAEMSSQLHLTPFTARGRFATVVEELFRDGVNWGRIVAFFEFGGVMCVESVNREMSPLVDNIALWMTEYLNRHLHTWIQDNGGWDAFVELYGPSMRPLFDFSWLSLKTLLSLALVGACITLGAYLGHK
Summary of the method: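 Competitive TR-FRET displacement of F-Bak peptide probe from GST-Bcl-2 detected with Tb-anti-GST antibody; compounds serially diluted in DMSO from 50 μM (2× starting concentration). Mixtures incubated 3 h at room temperature, read at 340 nm excitation with 520 and 495 nm emission. Ki derived by Wang's equation.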

[5] = 30 mg/kg intraperitoneal every day for four days, 24 hours after the last dose, read-out: Lymphocyte reduction % inh. day 4
[6] = 30 mg/kg intraperitoneal every day, 24 hours after the first dose, read-out: Lymphocyte reduction % inh. day 1

Compound | sensitivity of RS4;11 cells to the Bcl-2 family member inhibitor [1] | inhibition at 30 mg/kg [2, 5] | inhibition at 30 mg/kg [2, 6] | EC50 [3] | Ki [4]
CN(C)CC[C@H](CSc1ccccc1)Nc1ccc(S(=O)(=O)NC(=O)c2ccc(N3CCN(Cc4ccccc4-c4ccc(Cl)cc4)CC3)cc2)cc1[N+](=O)[O-] [ABT-737, N-(4-(4-((4′-chloro(1,1′-biphenyl)-2-yl)methyl)piperazin-1-yl)benzoyl)-4-(((1R)-3-(dimethylamino)-1-((phenylsulfanyl)methyl)propyl)amino)-3-nitrobenzenesulfonamide] | sensitive |  |  |  | 
CC1(C)CCC(CN2CCN(c3ccc(C(=O)NS(=O)(=O)c4ccc(NC[C@H]5COCC(C)(C)O5)c([N+](=O)[O-])c4)c(Oc4cnc5[nH]ccc5c4)c3)CC2)=C(c2ccc(Cl)cc2)C1 [Example 37, 4-(4-{[2-(4-chlorophenyl)-4,4-dimethylcyclohex-1-en-1-yl]methyl}piperazin-1-yl)-N-{[4-({[(2S)-6,6-dimethyl-1,4-dioxan-2-yl]methyl}amino)-3-nitrophenyl]sulfonyl}-2-(1H-pyrrolo[2,3-b]pyridin-5-yloxy)benzamide] |  | 22% | 28% | 250 nM | < 0.1 nM
C[C@@H]1CO[C@@H](CNc2ccc(S(=O)(=O)NC(=O)c3ccc(N4CCN(CC5=C(c6ccc(Cl)cc6)CC(C)(C)CC5)CC4)cc3Oc3cnc4[nH]ccc4c3)cc2[N+](=O)[O-])CO1 [Example 44, 4-(4-{[2-(4-chlorophenyl)-4,4-dimethylcyclohex-1-en-1-yl]methyl}piperazin-1-yl)-N-{[4-({[(2S,5R)-5-methyl-1,4-dioxan-2-yl]methyl}amino)-3-nitrophenyl]sulfonyl}-2-(1H-pyrrolo[2,3-b]pyridin-5-yloxy)benzamide] |  | 60% | 66% | 4.7 nM | < 0.1 nM
CC1(C)CCC(CN2CCN(c3ccc(C(=O)NS(=O)(=O)c4ccc(NCC5(C#N)CCOCC5)c([N+](=O)[O-])c4)c(Oc4cnc5[nH]ccc5c4)c3)CC2)=C(c2ccc(Cl)cc2)C1 [Example 46, 4-(4-{[2-(4-chlorophenyl)-4,4-dimethylcyclohex-1-en-1-yl]methyl}piperazin-1-yl)-N-[(4-{[(4-cyanotetrahydro-2H-pyran-4-yl)methyl]amino}-3-nitrophenyl)sulfonyl]-2-(1H-pyrrolo[2,3-b]pyridin-5-yloxy)benzamide] |  | 35% | 46% | 6.9 nM | < 0.1 nM
